Measured values: patent US7449190B2 (priority 2002, dated 2008)

Experiments:
[1] = test system: interaction of NP with VP35; format: biochemical, Ebola virus
NP = format: cell-based, Ebola virus
HIV gp160 = format: cell-based

## CCCCCCCCO[C@H]1O[C@H](COC(C)=O)[C@@H](OC(C)=O)[C@H](OC(C)=O)[C@@H]1OC(C)=O [AcManα1-OC8, acetylated Manα1-O-octyl]
[1]
  inhibition of the interaction of NP with VP35: not seen

## C[C@H]1CCC/C=C/[C@@H]2C[C@H](O)C[C@H]2[C@H](O)/C=C/C(=O)O1 [Brefeldin A]
[1]
  effect in the in vitro transcription/translation system (NP synthesis or association of NP with VP35 and VP24): without any effect

## CCCCCCCCO[C@H]1O[C@H](CO)[C@@H](O)[C@H](O)[C@@H]1O [Manα1-OC8, mannose α1-O-octyl]
[1]
  dose dependence of inhibition of NP/VP35 interaction: dose-dependent
  inhibition of NP/VP35 interaction when added after translation: did not inhibit
  inhibition of the interaction of NP with VP35: substantially reduced

## CC(=O)N[C@H]1[C@@H](OCc2ccccc2)O[C@H](CO)[C@H](O)[C@@H]1O[C@@H]1O[C@H](CO)[C@H](O)[C@H](O)[C@H]1O [benzyl 2-acetamido-2-deoxy-3-O-b-D-galactopyranosyl-a-D-galactopyranoside]
[1]
  effect in the in vitro transcription/translation system (NP synthesis or association of NP with VP35 and VP24): without any effect

## CC(=O)N[C@H]1[C@@H](OCc2ccccc2)O[C@H](CO)[C@H](O)[C@@H]1O [benzyl 2-acetamido-2-deoxy-a-D-galactopyranoside]
[1]
  effect in the in vitro transcription/translation system (NP synthesis or association of NP with VP35 and VP24): without any effect

## CC(=O)N[C@H]1[C@H](OCc2ccccc2)O[C@H](CO)[C@@H](O)[C@@H]1O [benzyl 2-acetamido-2-deoxy-b-D-glucopyranoside]
[1]
  effect in the in vitro transcription/translation system (NP synthesis or association of NP with VP35 and VP24): without any effect

## O=C(N[C@H]1[C@@H](OCc2ccccc2)O[C@H](CO)[C@@H](O)[C@@H]1O)OCc1ccccc1 [benzyl Z-a-D-glucosaminide]
[1]
  effect in the in vitro transcription/translation system (NP synthesis or association of NP with VP35 and VP24): without any effect

## O=C(N[C@H]1[C@H](OCc2ccccc2)O[C@H](CO)[C@@H](O)[C@@H]1O)OCc1ccccc1 [benzyl Z-b-D-glucosaminide]
[1]
  effect in the in vitro transcription/translation system (NP synthesis or association of NP with VP35 and VP24): without any effect

## OC[C@H]1NC[C@@H](O)[C@@H](O)[C@@H]1O [deoxymannojirimycin]
NP
  effect on NP migration (glycosylation) in NP-transfected 293 cells: No effect

## CC(=O)N[C@H]1[C@@H](Oc2ccccc2)O[C@H](CO)[C@H](O)[C@@H]1O [phenyl N-acetyl-a-D-galactosaminide]
[1]
  effect in the in vitro transcription/translation system (NP synthesis or association of NP with VP35 and VP24): without any effect

## tunicamycin
HIV gp160
  expression of HIV gp160: abolished
NP
  effect on NP migration (glycosylation) in NP-transfected 293 cells: No effect
  synthesis of NP in NP-transfected 293 cells: unaffected
